Patent US6107069A, “Recombinant kynurenine-3-hydroxylase enzyme and process for its preparation” (priority 1996, dated 2000)
Values belong to the molecule of their own block, whether it stands above or below them.

Legend:
rat kyn-3-OHase = target: T1, rat kyn-3-OHase (Rattus norvegicus, UniProt O88867); assay: Inhibition of rat kyn-3-OHase expressed in Xenopus laevis oocytes; format: biochemical; details: homogenates of oocytes injected with the clone, 50 μM L-kyn
T1 construct: encodes a deduced protein of 478 amino acid residues; expressed in transfected cells; host or cells: Xenopus laevis oocytes injected with cRNA of the cloned rat kidney cDNA (homogenate)
Text: Kyn-3-OHase activity was quantified by the conversion of L-kyn to 3-OH-Kyn.

kyn-3-OHase = details: systemic administration; cited from earlier work
brain [1] = details: peripherally formed; cited from earlier work
glycine modulatory site = details: cited from earlier work
brain [2] = details: cited from earlier work
rats = details: administration to rats; cited from earlier work
[3] = tested on: excitatory amino acid receptor; details: sites normally activated by glutamate and aspartate; cited from earlier work

T1 sequence (O88867 whole entry): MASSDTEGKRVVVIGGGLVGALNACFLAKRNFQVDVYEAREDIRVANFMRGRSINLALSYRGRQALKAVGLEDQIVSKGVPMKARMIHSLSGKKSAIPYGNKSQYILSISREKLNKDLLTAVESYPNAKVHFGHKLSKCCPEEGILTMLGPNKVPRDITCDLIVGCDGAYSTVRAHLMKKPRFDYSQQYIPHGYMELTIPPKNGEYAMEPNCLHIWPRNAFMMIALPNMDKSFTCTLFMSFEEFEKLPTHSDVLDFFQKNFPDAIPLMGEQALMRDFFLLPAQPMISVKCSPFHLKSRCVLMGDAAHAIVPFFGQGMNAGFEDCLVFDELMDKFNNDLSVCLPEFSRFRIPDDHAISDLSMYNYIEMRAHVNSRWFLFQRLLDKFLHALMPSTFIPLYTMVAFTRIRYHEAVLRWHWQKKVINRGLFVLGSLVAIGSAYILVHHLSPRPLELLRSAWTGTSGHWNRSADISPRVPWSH

IC50 (rat kyn-3-OHase): 290 nM
SMILES: NC(CC(=O)c1ccc(Cl)c(Cl)c1)C(=O)O (racemic) [FCE 28833A, (R,S)-3,4-dichlorobenzoylalanine]
endogenous KYNA levels in rat brain tissue (kyn-3-OHase): dose-dependent elevation | endogenous kynurenine levels in rat brain tissue (kyn-3-OHase): dose-dependent elevation

SMILES: Nc1c(O)cccc1C(=O)O [3-hydroxyanthranilic acid]
entry into the brain (brain [1]): enters the brain very poorly

SMILES: O=C(O)c1cc(=O)c2ccccc2[nH]1 [KYNA, kynurenic acid]
affinity to the glycine modulatory site (glycine modulatory site): particularly high affinity | excitatory amino acid receptor antagonism (glycine modulatory site): effective excitatory amino acid receptor antagonist | properties when applied directly into the brain (brain [2]): anticonvulsant and neuroprotective properties

SMILES: O=C(O)c1cccnc1C(=O)O [QUIN, quinolinic acid]
convulsions (rats): caused convulsions | activity at excitatory amino acid receptor sites [3]: agonist
